Key:
[1] = Growth inhibition of human HeLaS3 cells; assay type: functional; details: HeLa S3
[2] = target: Cyclin-dependent kinase 2/cyclin E (Homo sapiens, UniProt P24941); experiment: Inhibition of Cdk2/cyclinE; assay type: protein-complex assay
[3] = target: Cyclin-dependent kinase 2/cyclin A (Homo sapiens, UniProt P24941); experiment: Inhibition of recombinant Cdk2/cyclinA; assay type: protein-complex assay

| SMILES | GI50 [1] [µM] | IC50 [2] [µM] | IC50 [3] [µM] |
| --- | --- | --- | --- |
| CC(C)n1cnc2c(NCc3ccc(-n4cccn4)nc3)nc(N[C@H]3CC[C@H](N)CC3)nc21 | 0.02 | 0.05 | 0.07 |
| CC[C@H](CO)Nc1nc(NCc2ccccc2)c2ncn(C(C)C)c2n1 [SELICICLIB] | 20 |  |  |
| COc1cccc(-c2ccc(CNc3nc(N[C@H]4CC[C@H](N)CC4)nc4c3ncn4C(C)C)s2)c1 | 0.16 | 0.1 | 0.3 |
| CC(C)n1cnc2c(NCc3csc(-c4ccccc4)n3)nc(N[C@H]3CC[C@H](N)CC3)nc21 | 4 | 0.4 | 0.7 |
| CC(C)n1cnc2c(NCc3ccc(-c4cccc(F)c4)s3)nc(N[C@H]3CC[C@H](N)CC3)nc21 | 0.19 | 0.09 | 0.25 |
| CC(C)n1cnc2c(NCc3ccc(-c4ccc(F)cc4)s3)nc(N[C@H]3CC[C@H](N)CC3)nc21 | 0.39 | 0.3 | 0.5 |
| CC(C)n1cnc2c(NCc3ccc(-c4ccccc4)cc3)nc(N[C@H]3CC[C@H](N)CC3)nc21 |  | 0.1 | 0.4 |
| CC(C)n1cnc2c(NCc3ccc(-c4cccs4)s3)nc(N[C@H]3CC[C@H](N)CC3)nc21 | 0.3 | 0.055 | 0.14 |
| CC(C)n1cnc2c(NCc3ccc(-c4ccccn4)s3)nc(N[C@H]3CC[C@H](N)CC3)nc21 | 0.27 | 0.044 | 1.5 |
| Cc1csc(-c2ccc(CNc3nc(N[C@H]4CC[C@H](N)CC4)nc4c3ncn4C(C)C)s2)n1 | 0.04 |  | 0.1 |
| CC(C)n1cnc2c(NCc3ccc(-c4cccnc4)s3)nc(N[C@H]3CC[C@H](N)CC3)nc21 | 0.2 | 0.1 | 0.2 |
| CC(C)n1cnc2c(NCc3ccc(-c4ccccc4)nc3)nc(N[C@H]3CC[C@H](N)CC3)nc21 | 0.071 | 0.04 | 0.1 |
| CC(C)n1cnc2c(NCc3ccc(-c4ccsc4)cc3)nc(N[C@H]3CC[C@H](N)CC3)nc21 | 0.04 | 0.2 | 0.4 |
| CC(C)n1cnc2c(NCc3ccc(-n4cccc4)cc3)nc(N[C@H]3CC[C@H](N)CC3)nc21 | 0.02 | 0.2 | 0.2 |
| CC(C)n1cnc2c(NCc3ccc(-c4ccsc4)s3)nc(N[C@H]3CC[C@H](N)CC3)nc21 | 0.15 | 0.2 | 0.3 |
| Cc1cccc(-c2ccc(CNc3nc(N[C@H]4CC[C@H](N)CC4)nc4c3ncn4C(C)C)s2)c1 | 0.2 | 0.2 | 0.7 |
| CC(C)n1cnc2c(NCc3ccc(-c4cccc(F)c4)nc3)nc(N[C@H]3CC[C@H](N)CC3)nc21 | 0.016 | 0.04 | 0.08 |
| CC(C)n1cnc2c(NCc3ccc(-c4ccc(Cl)s4)cc3)nc(N[C@H]3CC[C@H](N)CC3)nc21 | 0.38 | 0.3 | 0.4 |

| SMILES | GI50 [1] [µM] | IC50 [2] [µM] | IC50 [3] [µM] |
| --- | --- | --- | --- |
| CC(C)n1cnc2c(NCc3ccc(-c4ccccc4F)s3)nc(N[C@H]3CC[C@H](N)CC3)nc21 | 0.3 | 0.08 | 0.4 |
| CC(C)n1cnc2c(NCc3ccc(-c4ccco4)s3)nc(N[C@H]3CC[C@H](N)CC3)nc21 | 0.3 | 0.1 | 0.2 |
| CC(C)n1cnc2c(NCc3ccc(-c4cccs4)cc3)nc(N[C@H]3CC[C@H](N)CC3)nc21 | 0.048 | 0.09 | 0.1 |
| CC(C)n1cnc2c(NCc3ccc(-c4cccnc4)cc3)nc(N[C@H]3CC[C@H](N)CC3)nc21 | 0.14 | 0.07 | 0.3 |
| CC(C)n1cnc2c(NCc3coc(-c4ccccc4)c3)nc(N[C@H]3CC[C@H](N)CC3)nc21 | 0.33 | 0.15 | 0.3 |
| CC(C)n1cnc2c(NCc3ccc(-n4cccn4)cc3)nc(N[C@H]3CC[C@H](N)CC3)nc21 | 0.17 | 0.95 | 0.14 |
| CC(C)n1cnc2c(NCc3ccc(-c4ccccn4)cc3)nc(N[C@H]3CC[C@H](N)CC3)nc21 | 0.044 | 0.1 | 0.2 |
| Cc1csc(-c2ccc(CNc3nc(N[C@H]4CC[C@H](N)CC4)nc4c3ncn4C(C)C)cc2)c1 | 0.4 | 0.2 | 0.5 |
| CC(C)n1cnc2c(NCc3cnc(-c4ccccc4)s3)nc(N[C@H]3CC[C@H](N)CC3)nc21 | 0.2 | < 0.05 | < 0.05 |
| CC(C)n1cnc2c(NCc3ccc(-c4ccccc4)cn3)nc(N[C@H]3CC[C@H](N)CC3)nc21 | 0.5 | 0.4 | 0.5 |
| CC(C)n1cnc2c(NCc3ccc(-c4ccoc4)s3)nc(N[C@H]3CC[C@H](N)CC3)nc21 | 2 | 0.2 | 0.6 |
| CC(C)n1cnc2c(NCc3ccc(-c4ccccn4)nc3)nc(N[C@H]3CC[C@H](N)CC3)nc21 | 0.31 | 0.03 | 0.09 |
| CC(C)n1cnc2c(NCc3ccc(-c4ccco4)cc3)nc(N[C@H]3CC[C@H](N)CC3)nc21 | 0.03 | 0.09 | 0.15 |
| Cc1ccc(-c2ccc(CNc3nc(N[C@H]4CC[C@H](N)CC4)nc4c3ncn4C(C)C)cc2)s1 | 0.4 | 0.2 | 0.6 |
| CC(C)n1cnc2c(NCc3ccc(-c4cccs4)nc3)nc(N[C@H]3CC[C@H](N)CC3)nc21 | 0.098 |  | 0.9 |
| CC(C)n1cnc2c(NCc3ccc(-c4ccsc4)nc3)nc(N[C@H]3CC[C@H](N)CC3)nc21 | 0.027 | < 0.03 | 0.1 |
| CC(C)n1cnc2c(NCc3csc(-c4ccccc4)c3)nc(N[C@H]3CC[C@H](N)CC3)nc21 | 0.37 | 0.085 | 0.25 |
